Data reported in US11952387B2, “Bicyclic heteroaromatic ring derivative” (priority 2018, dated 2024).

Test system: HRV14
Assay: Inhibitory activity against human rhinovirus infection and replication (quantitative real-time PCR)
Format: cell-based
Details: Human rhinovirus sp., MRC5; 100 nmol/L test compound; MRC-5 cells infected with HRV14 at MOI=0.2; 48 hours; viral load normalized to 18s rRNA; read-out: Percent Inhibition
Description: Evaluation of inhibitory activity against human rhinovirus infection and replication (by quantitative real-time PCR)
A required amount of a test compound was weighed off and dissolved in dimethyl sulfoxide (DMSO) to yield a 10 mmol/L stock solution. Next, the stock solution was diluted with a medium for viral infection (minimum essential medium (MEM) supplemented with 2% fetal bovine serum, 5% Tryptose phosphate broth, and 30 mmol/L MgCl2) to prepare 100 nmol/L and 1000 nmol/L of test compound solutions. MRC-5 (human fetal lung fibroblast: ATCC) was suspended at a density of 30000 cells/mL in cell culture medium (MEM supplemented with 10% fetal bovine serum), and 625 μL of the suspension per well was seeded into a 24-well cell culture plate and cultured at 37° C. in 5% CO2. After 72 hours, it was confirmed that the plate had become 80% confluent. The plate was washed with 625 μL of phosphate-buffered physiological saline (Ca/Mg-free; PBS-) once, and 625 μL of the test compound solution prepared just before use was immediately added to the plate. After 30 minutes, the medium was removed followed by addition of 187.5 μL of the test compound solution that had been prepared such that the cells were infected with HRV14 (ATCC) at multiplicity of infection (MOI)=0.2. The cells were then cultured at 35° C. in 5% CO2. After additional 2 hours, 625 μL of the test compound solution prepared just before use was added, and the cells were cultured at 35° C. in 5% CO2. After 48 hours, the cells were washed with 625 μL of PBS- once, and total RNA was extracted from the cells using RNeasy (R) plus kit (Qiagen) according to the manufacturer's instruction. Subsequently, cDNA was synthesized using High-Capacity cDNA Reverse Transcription Kit (Thermo Fisher Scientific). Finally, quantitative real-time PCR was performed in 7500 Fast Real-time PCR system (Life technologies) to measure HRV14 and 18s rRNA. The measurement protocol consisted of the initial denaturation phase at 95° C. for 20 seconds followed by 40 cycles of the denaturation step at 95° C. for 3 seconds and the annealing/elongation step at 60° C. for 30 seconds. The primers used were HRV14 forward primer set forth in SEQ ID NO: 1 and HRV14 reverse primer set forth in SEQ ID NO: 2, and the probe is set forth in SEQ ID NO: 3.
18s rRNA was measured using Eukaryotic 18S rRNA Endogenous Control (Applied Biosystems). According to Equation 1, 18s ribosomal RNA was used as an internal standard to normalize the viral load of HRV14: Viral load of HRV14=The amount of HRV14 in virus-infected cells/the amount of 18s rRNA in virus-infected cells Equation 1
Inhibitory activity of test compounds was calculated as a percent inhibition (%) according to Equation 2: Percent inhibition (%)=[the viral load of HRV in virus-infected cells in the absence of the test compound −the viral load of HRV in virus-infected cells in the presence of the test compound]/[the viral load of HRV in virus-infected cells in the absence of the test compound]×100 Equation 2
The results of using 100 nmol/L test compound solutions were shown in the tables below according to Examples. In the tables, percent inhibition was expressed as follows: percent inhibition >80%: +++, 80%≥percent inhibition >50%: ++, and 50%≥percent inhibition:+.

Structure (SMILES)	inhibition at 0.1 µM [%]
Cc1nc2sc(C(C)(C)C)cn2c1-c1ccc(C#N)c(S(=O)(=O)N[C@H]2CC[C@@H](O)CC2)c1 [Example 1-10]	> 80
CCOC(=O)C(C)(C)c1nn2c(-c3ccc(OC)c(S(=O)(=O)N[C@H]4CC[C@@H](O)CC4)c3)c(C)nc2s1 [Example 1-22]	> 80
COc1ccc(-c2c(C)nc3sc(C(C)(C)O)nn23)cc1S(=O)(=O)CC(C)(C)O [Example 1-38]	> 80
COc1ncc(-c2c(C)nc3sc(C(C)(C)C)cn23)cc1S(=O)(=O)N[C@H]1CC[C@@H](O)CC1 [Example 1-13]	> 80
Cc1nc2sc(C(C)(C)O)cn2c1-c1ccc(N(C)C)c(S(=O)(=O)N[C@H]2CC[C@@H](O)CC2)c1 [Example 2-5]	≤ 50
COc1ccc(-c2c(C)nc3sc(C(C)(C)O)nn23)cc1S(=O)(=O)C(C)(C)C [Example 2-34]	> 80
Cc1nc2sc(C(C)(C)O)nn2c1-c1ccc(C(F)(F)F)c(S(=O)(=O)CCC(C)(C)O)c1 [Example 2-45]	≤ 50
COc1ccc(-c2c(C)nc3sc(C(C)(C)O)nn23)cc1S(=O)(=O)C1COC1 [Example 2-49]	≤ 50
Cc1nc2sc(C(C)(C)O)nn2c1-c1ccc(Cl)c(S(=O)(=O)N[C@H]2CC[C@@H](O)CC2)c1 [Example 1-7]	> 80
COc1ccc(-c2c(C)nc3sc(C(C)(C)O)nn23)cc1S(=O)(=O)CC(C)(C)CO [Example 2-50]	≤ 50
Cc1nc2sc(C(C)(C)O)nn2c1-c1ccc(C(F)(F)F)c(S(=O)(=O)NCC(O)C(F)(F)F)c1 (stereo not shown) [Example 2-33]	> 80
COc1ccc(-c2c(C)nc3sc(C(C)(C)O)nn23)cc1S(=O)(=O)NC12CCC(O)(CC1)CC2 [Example 21-11]	≤ 50
Cc1nc2sc(C(C)(C)O)nn2c1-c1ccc(C(F)(F)F)c(S(=O)(=O)NC2(CO)CC(F)(F)C2)c1 [Example 2-32]	> 80
COc1ccc(-c2c(C)nc3sc(C(C)(C)O)cn23)cc1S(=O)(=O)N(C)[C@H]1CC[C@@H](O)CC1 [Example 24]	≤ 50
COc1ccc(-c2c(C)nc3sc(C(C)(C)O)nn23)cc1S(=O)(=O)C(C)C [Example 2-25]	≤ 50
Cc1nc2sc(C(C)(C)OC3COC3)cn2c1-c1ccc(Cl)c(S(=O)(=O)N[C@H]2CC[C@@H](O)CC2)c1 [Example 1-8]	50 to 80
Cc1nc2sc(C(C)(C)O)nn2c1-c1ccc(O)c(S(=O)(=O)CC(C)(C)O)c1 [Example 16]	≤ 50
COC(=O)C(C)(C)c1nn2c(-c3cnc(OC)c(S(=O)(=O)N[C@H]4CC[C@@H](O)CC4)c3)c(C)nc2s1 [Example 1-23]	> 80
Cc1nc2sc(C(O)(C(F)(F)F)C(F)(F)F)cn2c1-c1ccc(Cl)c(S(=O)(=O)N[C@H]2CC[C@@H](O)CC2)c1 [Example 1-11]	≤ 50
COc1ccc(-c2c(C)nc3sc(C(C)(C)O)nn23)cc1S(=O)(=O)NCC(O)C(F)(F)F (stereo not shown) [Example 21-16]	50 to 80
Cc1nc2sc(C(C)(C)O)nn2c1-c1ccc(C(F)(F)F)c(S(=O)(=O)NC23CCC(O)(CC2)CC3)c1 [Example 2-10]	> 80
COc1ccc(-c2c(C)nc3sc(C4(O)CCCC4)cn23)cc1S(=O)(=O)N[C@H]1CC[C@@H](O)CC1 [Example 1-44]	≤ 50
COc1ccc(-c2c(C)nc3sc(C(C)(C)O)nn23)cc1S(=O)(=O)C1CC1 [Example 1-37]	50 to 80
COc1ccc(-c2c(C)nc3sc(C(C)(C)O)nn23)cc1S(=O)(=O)[C@H]1C[C@@H](C(C)(C)O)C1 [Example 2-71]	> 80
COc1c(F)cc(-c2c(C)nc3sc(C(C)(C)O)nn23)cc1S(=O)(=O)CC(C)(C)O [Example 2-43]	50 to 80
Cc1nc2sc(C(C)(C)O)nn2c1-c1ccc(C(F)(F)F)c(S(=O)(=O)CCO)c1 [Example 2-14]	≤ 50

Structure (SMILES)	inhibition at 0.1 µM [%]
COc1ccc(-c2c(C)nc3sc(C)cn23)cc1S(=O)(=O)Nc1ccc(F)cc1 [Example 1-51]	50 to 80
COc1ccc(-c2c(C)nc3sc(C(C)(C)C#N)nn23)cc1S(=O)(=O)N[C@H]1CC[C@@H](O)CC1 [Example 1-20]	> 80
Cc1nc2sc(C(C)(C)C)nn2c1-c1ccc(C(F)(F)F)c(S(=O)(=O)N[C@H]2CC[C@H](O)CC2)c1 [Example 1-32]	> 80
Cc1nc2sc(C(C)(C)O)nn2c1-c1ccc(CO)c(S(=O)(=O)CC(C)(C)O)c1 [Example 17]	≤ 50
COc1ccc(-c2c(C)nc3sc(C(C)(C)O)nn23)cc1S(=O)(=O)Nc1ccc(O)cc1 [Example 2-86]	> 80
Cc1nc2sc(C(C)(C)O)nn2c1-c1ccc(C(F)(F)F)c(S(=O)(=O)C2(CO)CC2)c1 [Example 4-2]	> 80
COc1ccc(-c2c(C)nc3sc(C(C)(C)O)nn23)cc1S(=O)(=O)[C@H]1CC[C@@](C)(O)CC1 [Example 15-1]	≤ 50
CC(=O)N1CC(NS(=O)(=O)c2cc(-c3c(C)nc4sc(C(C)(C)O)nn34)ccc2C(F)(F)F)C1 [Example 2-24]	≤ 50
COc1ccc(-c2c(C)nc3sc(C(O)(C4CC4)C4CC4)nn23)cc1S(=O)(=O)C1CN(C(=O)OC(C)(C)C)C1 [Example 2-84]	> 80
COc1ccc(-c2c(C)nc3sc(C(O)(C4CC4)C4CC4)nn23)cc1S(=O)(=O)C(C)(C)C#N [Example 7-2]	> 80
COc1ccc(-c2c(C)nc3sc(C(O)(C4CC4)C4CC4)nn23)cc1S(=O)(=O)CC(C)(C)O [Example 1-53]	> 80
COc1ccc(-c2c(C)nc3sc(C(C)(C)O)nn23)cc1S(=O)(=O)[C@@H]1CC[C@](C)(O)C1 [Example 2-70]	≤ 50
COc1ccc(-c2c(C)nc3sc(C(C)(C)OC)cn23)cc1S(=O)(=O)Nc1ccc(F)cc1 [Example 1-50]	> 80
COc1ccc(-c2c(C)nc3sc(C(C)(C)O)nn23)cc1S(=O)(=O)[C@H]1C[C@@](C)(C(C)(C)O)C1 [Example 2-74]	≤ 50
Cc1nc2sc(C(C)(C)O)nn2c1-c1ccc(C(F)(F)F)c(S(=O)(=O)N[C@H]2C[C@@H](O)C2)c1 [Example 2-17]	> 80
COc1ccc(-c2c(C)nc3sc(C4(C#N)CC4)nn23)cc1S(=O)(=O)C1CC1 [Example 1-40]	≤ 50
COc1ccc(-c2c(C)nc3sc(C(O)(C4CC4)C4CC4)nn23)cc1S(=O)(=O)C(C)(C)CO [Example 4-5]	> 80
COc1ccc(-c2c(C)nc3sc(C(C)(C)O)nn23)cc1S(=O)(=O)NCC(C)(C)O [Example 21-7]	50 to 80
Cc1nc2sc(C(C)(C)O)nn2c1-c1ccc(C(F)(F)F)c(S(=O)(=O)C2CN(S(C)(=O)=O)C2)c1 [Example 9-1]	> 80
COc1ccc(-c2c(C)nc3sc(C(C)(C)O)nn23)cc1S(=O)(=O)N[C@H]1C[C@@H](O)C1 [Example 21-10]	≤ 50
COc1ccc(-c2c(C)nc3sc(C(C)(C)O)nn23)cc1S(=O)(=O)[C@H]1C[C@](C)(O)C1 [Example 2-76]	> 80
COc1ccc(-c2c(C)nc3sc(C4(C(F)(F)F)CC4)nn23)cc1S(=O)(=O)N[C@H]1CC[C@@H](O)CC1 [Example 1-31]	> 80
COc1ncc(-c2c(C)nc3sc(C4CC4)nn23)cc1S(=O)(=O)N[C@H]1CC[C@@H](O)CC1 [Example 1-16]	50 to 80
Cc1nc2sc(C(C)(C)O)nn2c1-c1ccc(C(F)(F)F)c(S(=O)(=O)[C@H]2C[C@@H](O)C2)c1 [Example 2-46]	> 80
COc1ccc(-c2c(C)nc3sc(C(C)(C)O)nn23)cc1S(=O)(=O)CCC(C)(C)O [Example 2-42]	≤ 50
COc1ccc(-c2c(C)nc3sc(C(C)(C)C(=O)O)nn23)cc1S(=O)(=O)N[C@H]1CC[C@@H](O)CC1 [Example 18-1]	50 to 80
